In patent publication US20220211678A1, “USES OF (+)-A-DIHYDROTETRABENAZINE IN METHODS OF TREATING MOVEMENT DISORDER” (ADEPTIO PHARMACEUTICALS LIMITED, priority 2017, published 2022):

What was measured:
[1] = test system: amphetamine-induced rats; assay: Amphetamine-induced locomotor activity and stereotypic behaviour, open field arena (Example 2, Studies 1, 2, 4); assay type: in vivo, rat; conditions: for normalised total stereotypic behaviour, compared to vehicle-amphetamine group / total distance travelled, compared to vehicle-amphetamine group: amphetamine at t=30 min; for locomotor activity compared to the vehicle-amphetamine group (conclusion) / stereotypic behaviour compared to the vehicle-amphetamine group (conclusion): risperidone 1 mg/kg
Description: Dopaminergic models for Tourette's syndrome use systemic or focal administration of dopamine agonists such as amphetamine. After injection with amphetamine, a test animal expresses stereotypic behaviour. In particular, involvement of a dopaminergic system implicated in Tourette's syndrome wild type mice and rats can be stimulated with amphetamine and the resulting hyperactivity and stereotypies can be reversed with dopamine antagonists such as risperidone and haloperidol (Tourette's syndrome—Animal Models for Screening, Charles River Discovery Research Services, Finland).
All animal experiments were carried out according to the National Institute of Health (NIH) guidelines for the care and use of laboratory animals, and approved by the National Animal Experiment Board, Finland. Male CD (Charles River Laboratories, Germany) at weight range of 200-250 g (165-200 g upon arrival) were used for the experiments. Animals were housed at a standard temperature (22±1° C.) and in a light-controlled environment (lights on from 7 am to 8 pm) with ad libitum access to food and water.
Locomotor activity of the rats was tested in open field arena. The open field test was performed during the rat light cycle and under a normal lighting evenly distributed to the test chambers. The paths of the rats were recorded by activity monitor (Med. Associates Inc.).
Dosing the vehicle, vehicle-amphetamine, (+)-α-DHTBZ or risperidone was done prior to LMA test. The rats were placed in the centre of the arena, and the path was recorded for 60 minutes.
(§1) Animals were grouped as follows: • Group 1: 10 rats treated with Vehicle (t=0 min) and Vehicle (t=30 min) • Group 2: 10 rats treated with Vehicle (t=0 min) and Amphetamine (t=30 min) • Group 3: 10 rats treated with (+)-α-DHTBZ 0.5 mg/kg (t=0 min) and Amphetamine (t=30 min) • Group 4: 10 rats treated with (+)-α-DHTBZ 1 mg/kg (t=0 min) and Amphetamine (t=30 min) • Group 5: 10 rats treated with (+)-α-DHTBZ 1.5 mg/kg (t=0 min) and Amphetamine (t=30 min) • Group 6: 10 rats treated with (+)-α-DHTBZ 2 mg/kg (t=0 min) and Amphetamine (t=30 min) • Group 7: 10 rats treated with risperidone 1 mg/kg (t=0 min) and Amphetamine (t=30 min)
(§2) Rats dosed with either vehicle, (+)-α-DHTBZ 0.5 mg/kg, (+)-α-DHTBZ 1 mg/kg, (+)-α-DHTBZ 1.5 mg/kg, (+)-α-DHTBZ 2 mg/kg or Risperidone 1 mg/kg were subjected to LMA testing first for 30 min and then for 60 minutes after vehicle or amphetamine challenge. Resulting locomotor activity was evaluated in 3 min bins and as a total over the testing period.
as §2, with “stereotypic” for “locomotor”
Animals were grouped as follows: • Group 1: 10 rats treated with Vehicle (t=0 min) and Vehicle (t=30 min) • Group 2: 10 rats treated with Vehicle (t=0 min) and Amphetamine (t=30 min) • Group 3: 10 rats treated with (+)-α-DHTBZ 0.1 mg/kg (t=0 min) and Amphetamine (t=30 min) • Group 4: 10 rats treated with (+)-α-DHTBZ 0.25 mg/kg (t=0 min) and Amphetamine (t=30 min) • Group 5: 10 rats treated with risperidone 1 mg/kg (t=0 min) and Amphetamine (t=30 min)
as §1, with “(+)-α-DHTBZ 1” for “(+)-α-DHTBZ 0.5”, “(+)-α-DHTBZ 1.5” for “(+)-α-DHTBZ 1”, “with Valbenazine 1” for “with (+)-α-DHTBZ 1.5”, “with Valbenazine 1.5” for “with (+)-α-DHTBZ 2”

[2] = target: T1, VMAT2 (Homo sapiens, UniProt Q05940); assay: % VMAT2 blocking by PET scan 60-120 minutes after oral dosing of human volunteers (Example 1A); assay type: in vivo
T1 construct: from tissue; host or cells: brain of living human volunteers, measured by PET
Description: Complete blocking of VMAT2 is considered undesirable as this can lead to unwanted side effects, such as Parkinsonism. […] The levels of VMAT2 blocking can be determined by competitive binding studies using Positron Emission Tomography (PET). By co-administering a radioactive ligand with the compound of interest at various concentrations, the proportion of binding sites occupied can be determined (see for example, Matthews et al., “Positron emission tomography molecular imaging for drug development”, Br. J. Clin. Pharmacol., 73:2, 175-186). Accordingly, the invention also provides:
In four of the volunteers, blood sample were taken at 30, 60, 120 and 180 minutes after drug administration. Blood samples were not taken from the fifth volunteer. At 60 minutes after drug administration, PET scans were initiated and these were stopped at 120 minutes after drug administration.
The experiment was carried out at dosages of 7.5 mg, 15 mg and 22.5 mg.

[3] = Study 1, (+)-α-DHTBZ at all the tested doses (0.5, 1, 1.5, 2 mg/kg)

T1 sequence (Q05940 whole entry): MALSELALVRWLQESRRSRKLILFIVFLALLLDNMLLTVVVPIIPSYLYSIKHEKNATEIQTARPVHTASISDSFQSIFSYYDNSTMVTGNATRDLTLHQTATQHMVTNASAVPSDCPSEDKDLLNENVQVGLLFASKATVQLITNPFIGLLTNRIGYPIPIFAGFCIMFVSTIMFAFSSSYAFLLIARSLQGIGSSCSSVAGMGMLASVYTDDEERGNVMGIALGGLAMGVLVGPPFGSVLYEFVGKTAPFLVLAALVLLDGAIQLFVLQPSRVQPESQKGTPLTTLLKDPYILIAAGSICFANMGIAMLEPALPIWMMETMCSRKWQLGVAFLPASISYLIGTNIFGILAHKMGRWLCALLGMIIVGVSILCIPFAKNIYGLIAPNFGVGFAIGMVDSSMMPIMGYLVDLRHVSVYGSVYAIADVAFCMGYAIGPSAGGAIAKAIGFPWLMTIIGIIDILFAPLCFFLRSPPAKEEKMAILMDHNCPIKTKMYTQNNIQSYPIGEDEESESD

## COc1cc2c(cc1OC)[C@H]1C[C@@H](O)[C@H](CC(C)C)CN1CC2 [(+)-α-dihydrotetrabenazine, (R,R,R)-3-isobutyl-9,10-dimethyloxy-1,3,4,5,7,11b-hexahydro-2H-pyrido[2,1-a]isoquinolin-2-ol]
[1]; Study 1, 0.5 mg/kg
  normalised total stereotypic behaviour, compared to vehicle-amphetamine group: significantly different
[1]; Study 1, 1 mg/kg
  normalised total stereotypic behaviour, compared to vehicle-amphetamine group: significantly different
[1]; Study 1, 1.5 mg/kg
  normalised total stereotypic behaviour, compared to vehicle-amphetamine group: significantly different
[1]; Study 1, 2 mg/kg
  normalised total stereotypic behaviour, compared to vehicle-amphetamine group: significantly different
[1]; [3]
  locomotor activity compared to the vehicle-amphetamine group (conclusion): lower locomotor activity
  stereotypic behaviour compared to the vehicle-amphetamine group (conclusion): reduced stereotypic behaviour
[1]; Study 2, 0.1 mg/kg
  normalised total stereotypic behaviour, compared to vehicle-amphetamine group: significantly different
[1]; Study 2, 0.25 mg/kg
  normalised total stereotypic behaviour, compared to vehicle-amphetamine group: significantly different
[1]; Study 2, (+)-α-DHTBZ at 0.25 mg/kg
  locomotor activity compared to the vehicle-amphetamine group (conclusion): lower locomotor activity
[1]; Study 2, (+)-α-DHTBZ at both the tested doses (0.1, 0.25 mg/kg)
  stereotypic behaviour compared to the vehicle-amphetamine group (conclusion): reduced stereotypic behaviour
[1]; Study 4, 1 mg/kg and 1.5 mg/kg
  locomotor activity compared to the vehicle-amphetamine group and the corresponding dose of Valbenazine (conclusion): lower locomotor activity
[1]; Study 4, 1 mg/kg
  normalised total stereotypic behaviour, compared to vehicle-amphetamine group: significantly different
  total distance travelled, compared to vehicle-amphetamine group: significantly different
[1]; Study 4, 1.5 mg/kg
  normalised total stereotypic behaviour, compared to vehicle-amphetamine group: significantly different
  total distance travelled, compared to vehicle-amphetamine group: significantly different
[1]; Study 4, both the tested doses (1 mg/kg and 1.5 mg/kg)
  stereotypic behaviour compared to the vehicle-amphetamine group and the corresponding dose of Valbenazine (conclusion): reduced stereotypic behaviour
[2]; 7.5 mg oral, PET scan 60-120 min after administration, subject 1 (112 kg)
  % VMAT2 blocking: 54%
[2]; 7.5 mg oral, PET scan 60-120 min after administration, subject 2 (76 kg)
  % VMAT2 blocking: 73%
[2]; 7.5 mg oral, PET scan 60-120 min after administration, subject 3 (129 kg)
  % VMAT2 blocking: 62%
[2]; 7.5 mg oral, PET scan 60-120 min after administration, subject 4 (59 kg)
  % VMAT2 blocking: 84%
[2]; 7.5 mg oral, PET scan 60-120 min after administration, subject 5 (91 kg)
  % VMAT2 blocking: 73%
[2]; 7.5 mg oral, PET scan 60-120 min after administration, subject 6 (68 kg)
  % VMAT2 blocking: 60%
[2]; 15 mg oral, PET scan 60-120 min after administration, subject 1 (112 kg)
  % VMAT2 blocking: 73%
[2]; 15 mg oral, PET scan 60-120 min after administration, subject 2 (76 kg)
  % VMAT2 blocking: 83%
[2]; 15 mg oral, PET scan 60-120 min after administration, subject 3 (129 kg)
  % VMAT2 blocking: 69%
[2]; 15 mg oral, PET scan 60-120 min after administration, subject 4 (59 kg)
  % VMAT2 blocking: 89%
[2]; 15 mg oral, PET scan 60-120 min after administration, subject 5 (91 kg)
  % VMAT2 blocking: 79%
[2]; 15 mg oral, PET scan 60-120 min after administration, subject 6 (68 kg)
  % VMAT2 blocking: 76%
[2]; 22.5 mg oral, PET scan 60-120 min after administration, subject 1 (112 kg)
  % VMAT2 blocking: 75%
[2]; 22.5 mg oral, PET scan 60-120 min after administration, subject 2 (76 kg)
  % VMAT2 blocking: 82%
[2]; 22.5 mg oral, PET scan 60-120 min after administration, subject 3 (129 kg)
  % VMAT2 blocking: 74%
[2]; 22.5 mg oral, PET scan 60-120 min after administration, subject 5 (91 kg)
  % VMAT2 blocking: 82%
[2]; 22.5 mg oral, PET scan 60-120 min after administration, subject 6 (68 kg)
  % VMAT2 blocking: 62%
[2]; heavier individuals, doses as low as 7.5 mg
  % VMAT2 blocking: at least 50%
